Experiments:
Assay type in all cases: cell-based
[1] = molecular target: T1, Human PPARα (Homo sapiens, UniProt Q07869); test: Human PPARα Reporter Assay (luciferase, Indigo Biosciences); conditions: antagonist mode, reporter cells, overnight incubation
T1 construct: host or cells: proprietary non-human mammalian cells
T1 sequence (Q07869 1-468): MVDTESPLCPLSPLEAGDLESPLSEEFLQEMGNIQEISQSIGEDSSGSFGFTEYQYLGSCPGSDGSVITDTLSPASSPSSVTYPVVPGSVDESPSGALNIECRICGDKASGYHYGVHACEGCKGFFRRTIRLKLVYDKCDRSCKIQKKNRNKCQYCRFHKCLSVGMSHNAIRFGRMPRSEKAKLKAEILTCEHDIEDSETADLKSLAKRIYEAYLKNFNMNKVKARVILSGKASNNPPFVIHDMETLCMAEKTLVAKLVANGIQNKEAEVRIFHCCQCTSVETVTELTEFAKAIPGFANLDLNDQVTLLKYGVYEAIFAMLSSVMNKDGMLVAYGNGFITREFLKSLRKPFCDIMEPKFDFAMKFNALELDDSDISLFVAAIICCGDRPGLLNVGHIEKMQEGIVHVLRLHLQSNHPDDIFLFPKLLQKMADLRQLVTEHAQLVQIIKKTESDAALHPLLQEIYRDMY
Description: Human PPARα Reporter Assay The screening of test compounds for agonist or antagonist activities against human PPARα receptors was performed using a commercial kit, Human PPARα Reporter Assay System (Indigo Biosciences, Cat. #IB00111). This nuclear receptor assay system utilizes proprietary non-human mammalian cells engineered to provide constitutive, high-level expression of Human PPARα. Because these cells incorporate a PPARα-responsive luciferase reporter gene, quantifying expressed luciferase activity provides a sensitive surrogate measure of PPARα activity in the treated cells. The primary application of this reporter assay system is in the screening of test samples to quantify any functional activity, either agonist or antagonist, that they may exert against human PPARα. […] Briefly, reporter cells are dispensed into wells of the assay plate and then immediately dosed with test compounds. Following an overnight incubation, the treatment media is discarded and Luciferase Detection Reagent (LDR) is added. The intensity of light emission from the ensuing luciferase reaction provides a sensitive measure that is directly proportional to the relative level of PPARα activation in the reporter cells.

[2] = molecular target: T2, human PPAR β/δ (Homo sapiens, UniProt Q03181); test: Human PPAR β/δ reporter assay (luciferase, Indigo Biosciences kit); conditions: antagonist mode, agonist at ~EC80; read-out: PPARδ Luciferase IC50
T2 construct: host or cells: engineered reporter cells (analogous to the PPARα kit)
T2 sequence (Q03181 1-441): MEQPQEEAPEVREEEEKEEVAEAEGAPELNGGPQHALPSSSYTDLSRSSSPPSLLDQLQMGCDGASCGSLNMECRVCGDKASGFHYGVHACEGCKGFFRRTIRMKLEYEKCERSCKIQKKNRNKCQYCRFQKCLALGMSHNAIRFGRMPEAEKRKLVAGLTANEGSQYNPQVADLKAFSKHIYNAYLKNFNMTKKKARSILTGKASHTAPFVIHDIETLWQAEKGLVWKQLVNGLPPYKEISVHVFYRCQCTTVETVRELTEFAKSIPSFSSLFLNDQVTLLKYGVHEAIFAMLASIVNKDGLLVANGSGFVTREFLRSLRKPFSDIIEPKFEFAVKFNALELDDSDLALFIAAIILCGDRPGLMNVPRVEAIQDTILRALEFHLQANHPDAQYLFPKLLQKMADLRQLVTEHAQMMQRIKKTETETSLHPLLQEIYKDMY
Description: (§1) Target Selectivity Assays
(§2) To determine species selectivity, a Mouse PPARα Reporter Assay System was used (Indigo Biosciences, Cat. #M00111). Activity of test compounds to antagonize or agonize other isoforms of human PPAR, for example β/δ and γ, were assessed using the corresponding kits from Indigo Biosciences (Cat. #IB00121 and #IB00101, respectively). In addition to PPAR activity, compounds were also screened for activity against other nuclear hormone receptors including Estrogen Receptor β, Glucocorticoid Receptor and Thyroid Receptor β using commercially available kits (Indigo Biosciences, Cat. #IB00411, IB00201 and IB01101, respectively). Each assay system from Indigo Biosciences uses technology analogous to the human PPARα kit, with the variance being that the cells used for each assay were engineered to over-express the receptor of interest. In addition, the appropriate receptor agonist (included with each kit) was used at ˜EC80 for assays in which antagonist potency was being assessed.

[3] = molecular target: T3, human PPAR γ (Homo sapiens, UniProt P37231); test: Human PPARγ reporter assay (Indigo Biosciences kit); conditions: antagonist mode, agonist at ~EC80; read-out: PPARγ
T3 sequence (P37231 1-505): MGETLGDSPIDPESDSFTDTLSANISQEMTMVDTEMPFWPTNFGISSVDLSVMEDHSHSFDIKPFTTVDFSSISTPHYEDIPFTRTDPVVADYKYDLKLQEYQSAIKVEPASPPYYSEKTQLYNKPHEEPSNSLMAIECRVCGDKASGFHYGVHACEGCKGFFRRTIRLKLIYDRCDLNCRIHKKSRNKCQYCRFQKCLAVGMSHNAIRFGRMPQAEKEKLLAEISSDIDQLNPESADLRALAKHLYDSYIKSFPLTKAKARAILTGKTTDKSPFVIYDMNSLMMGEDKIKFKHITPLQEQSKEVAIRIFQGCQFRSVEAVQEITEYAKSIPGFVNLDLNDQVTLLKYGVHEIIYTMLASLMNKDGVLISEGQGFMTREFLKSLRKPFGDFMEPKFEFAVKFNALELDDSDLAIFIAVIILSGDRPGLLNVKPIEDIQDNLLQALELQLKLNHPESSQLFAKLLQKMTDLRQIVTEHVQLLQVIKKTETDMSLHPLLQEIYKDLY
Description: as §1, §2

SMILES | IC50 [1] [nM] | IC50 [2] [nM] | IC50 [3] [nM]
CCOc1ccc(-c2ccc(CCCc3nn(-c4ccc(C(F)(F)F)cc4)c(=O)n3-c3ccccc3CC)cc2)cc1CC(=O)O [Example 25, 2-(4-ethoxy-4′-(3-(4-(2-ethylphenyl)-5-oxo-1-(4-(trifluoromethyl)phenyl)-4,5-dihydro-1H-1,2,4-triazol-3-yl)propyl)-[1,1′-biphenyl]-3-yl)acetic acid] | 343 | 100 | 29000
CCOc1ccc(-c2ccc(CCCc3nn(-c4ccc(C(C)(C)C)cc4)c(=O)n3-c3c(Cl)cccc3Cl)cc2)cc1CC(=O)O [Example 28] | 165 | 789 | 32900
CCOc1ccc(-c2cccc(CCCc3nn(-c4ccc(C(F)(F)F)cc4)c(=O)n3-c3ccccc3F)c2)cc1CC(=O)O [Example 30, 2-(4-ethoxy-3′-(3-(4-(2-fluorophenyl)-5-oxo-1-(4-(trifluoromethyl)phenyl)-4,5-dihydro-1H-1,2,4-triazol-3-yl)propyl)-[1,1′-biphenyl]-3-yl)acetic acid] | 386 | 96 | 27600
CCOc1ccc(-c2cccc(CCCc3nn(-c4ccc(C(F)(F)F)cc4)c(=O)n3C(C)C)c2)cc1CC(=O)O [Example 31] | 199 | 742 | 56900
CCOc1ccc(-c2ccc(CCCc3nn(-c4ccc(C(F)(F)F)cc4Cl)c(=O)n3-c3ccccc3F)cc2)cc1CC(=O)O [Example 33, 2-(4-ethoxy-4′-(3-(4-(2-fluorophenyl)-5-oxo-1-(2-chloro-4-(trifluoromethyl)phenyl)-4,5-dihydro-1H-1,2,4-triazol-3-yl)propyl)-[1,1′-biphenyl]-3-yl)acetic acid] | 138 | 746 | 32300

These reach a lower IC50 [1]. Values come first.

IC50 [1] [nM] | IC50 [2] [nM] | IC50 [3] [nM] | SMILES
111 | 34 | 20000 | CCCOc1ccc(-c2ccc(CCCc3nn(-c4ccc(C(F)(F)F)cc4)c(=O)n3-c3ccccc3F)cc2)cc1CC(=O)O [Example 39, 2-(4-propoxy-4′-(3-(4-(2-fluorophenyl)-5-oxo-1-(4-(trifluoromethyl)phenyl)-4,5-dihydro-1H-1,2,4-triazol-3-yl)propyl)-[1,1′-biphenyl-]-3-yl)acetic acid]
28 | 236 | 28900 | CCOc1ccc(-c2ccc(CCCc3nn(-c4ccc(C(C)C)cc4)c(=O)n3-c3ccccc3Cl)cc2)cc1CC(=O)O [Example 27, 2-(4′-(3-(4-(2-chlorophenyl)-1-(4-isopropylphenyl)-5-oxo-4,5-dihydro-1H-1,2,4-triazol-3-yl)propyl)-4-ethoxy-[1,1′-biphenyl-]-3-yl)acetic acid]

— patent US9776976B2, “Triazolone compounds and uses thereof” (Inception 2, Inc., priority 2013, dated 2017)
